Data: US20230125667A1, “NOVEL TDZD ANALOGS AS AGENTS THAT DELAY, PREVENT, OR REVERSE AGE-ASSOCIATED DISEASES AND AS ANTI-CANCER AND ANTILEUKEMIC AGENTS” (United States Government as represented by the Department …, priority 2020, published 2023)
Read-outs that look alike come from different tables or passages of the source.

How the values were obtained:
SR = test: NCI-60 growth inhibition: SR (Leukemia); assay type: cell-based, human
HT29 = test: NCI-60 growth inhibition: HT29 (Colon Cancer); assay type: cell-based, human
MDA-MB-468 = test: NCI-60 growth inhibition: MDA-MB-468 (Breast Cancer); assay type: cell-based, human; conditions: MDA-MB-468 (Breast Cancer), read-out: GI50
U251 = test: NCI-60 growth inhibition: U251 (CNS Cancer); assay type: cell-based, human
UACC-62 = test: NCI-60 growth inhibition: UACC-62 (Melanoma); assay type: cell-based, human
MDA-MB-435 = test: NCI-60 growth inhibition: MDA-MB-435 (Melanoma); assay type: cell-based, human
CCRF-CEM = test: NCI-60 growth inhibition: CCRF-CEM (Leukemia); assay type: cell-based, human
SF-539 = test: NCI-60 growth inhibition: SF-539 (CNS Cancer); assay type: cell-based, human
T-47D = test: NCI-60 growth inhibition: T-47D (Breast Cancer); assay type: cell-based, human
HOP-92 = test: NCI-60 growth inhibition: HOP-92 (Non-Small-Cell Lung Cancer); assay type: cell-based, human
SN12C = test: NCI-60 growth inhibition: SN12C (Renal Cancer); assay type: cell-based, human
SNB-19 = test: NCI-60 growth inhibition: SNB-19 (CNS Cancer); assay type: cell-based, human
A498 = test: NCI-60 growth inhibition: A498 (Renal Cancer); assay type: cell-based, human
NCI-H522 = test: NCI-60 growth inhibition: NCI-H522 (Non-Small-Cell Lung Cancer)
LOX IMVI = test: NCI-60 growth inhibition: LOX IMVI (Melanoma); assay type: cell-based, human
HCT-116 = test: NCI-60 growth inhibition: HCT-116 (Colon Cancer)
BT-549 = test: NCI-60 growth inhibition: BT-549 (Breast Cancer); assay type: cell-based, human
UO-31 = test: NCI-60 growth inhibition: UO-31 (Renal Cancer); assay type: cell-based, human
M14 = test: NCI-60 growth inhibition: M14 (Melanoma); assay type: cell-based, human
RXF 393 = test: NCI-60 growth inhibition: RXF 393 (Renal Cancer); assay type: cell-based, human
IGROV1 = test: NCI-60 growth inhibition: IGROV1 (Ovarian Cancer); assay type: cell-based, human
COLO 205 = test: NCI-60 growth inhibition: COLO 205 (Colon Cancer); assay type: cell-based, human
MALME-3M = test: NCI-60 growth inhibition: MALME-3M (Melanoma); assay type: cell-based, human
MCF7 = test: NCI-60 growth inhibition: MCF7 (Breast Cancer); assay type: cell-based, human
[1] = system: MV4-11 cell line (myelomonocytic leukemia); conditions: MV4-11 cells; for LD50, 7AAD (μM) 24 h / LD50, Alamar blue (μM) 24 h / LD50, YOPRO (μM) 24 h: MMB-TDZD analogs (Table 2)
SK-MEL-2 = test: NCI-60 growth inhibition: SK-MEL-2 (Melanoma); assay type: cell-based, human
SW-620 = test: NCI-60 growth inhibition: SW-620 (Colon Cancer); assay type: cell-based, human
786-0 = test: NCI-60 growth inhibition: 786-0 (Renal Cancer); assay type: cell-based, human
OVCAR-5 = test: NCI-60 growth inhibition: OVCAR-5 (Ovarian Cancer); assay type: cell-based, human
OVCAR-3 = test: NCI-60 growth inhibition: OVCAR-3 (Ovarian Cancer); assay type: cell-based, human
OVCAR-8 = test: NCI-60 growth inhibition: OVCAR-8 (Ovarian Cancer); assay type: cell-based, human
NCI-H460 = test: NCI-60 growth inhibition: NCI-H460 (Non-Small-Cell Lung Cancer); assay type: cell-based, human
CAKI-1 = test: NCI-60 growth inhibition: CAKI-1 (Renal Cancer); assay type: cell-based, human
NCI-H23 = test: NCI-60 growth inhibition: NCI-H23 (Non-Small-Cell Lung Cancer); assay type: cell-based, human
EKVX = test: NCI-60 growth inhibition: EKVX (Non-Small-Cell Lung Cancer); assay type: cell-based, human
PC-3 = test: NCI-60 growth inhibition: PC-3 (Prostate Cancer); assay type: cell-based, human
SF-268 = test: NCI-60 growth inhibition: SF-268 (CNS Cancer); assay type: cell-based, human
HS 578T = test: NCI-60 growth inhibition: HS 578T (Breast Cancer); assay type: cell-based, human
DU-145 = test: NCI-60 growth inhibition: DU-145 (Prostate Cancer); assay type: cell-based, human
K-562 = test: NCI-60 growth inhibition: K-562 (Leukemia); assay type: cell-based, human
SNB-75 = test: NCI-60 growth inhibition: SNB-75 (CNS Cancer); assay type: cell-based, human
SK-MEL-5 = test: NCI-60 growth inhibition: SK-MEL-5 (Melanoma); assay type: cell-based, human
OVCAR-4 = test: NCI-60 growth inhibition: OVCAR-4 (Ovarian Cancer); assay type: cell-based, human
ACHN = test: NCI-60 growth inhibition: ACHN (Renal Cancer); assay type: cell-based, human
TK-10 = test: NCI-60 growth inhibition: TK-10 (Renal Cancer); assay type: cell-based, human
MOLT-4 = test: NCI-60 growth inhibition: MOLT-4 (Leukemia); assay type: cell-based, human
SK-MEL-28 = test: NCI-60 growth inhibition: SK-MEL-28 (Melanoma); assay type: cell-based, human
MDA-MB-231/ATCC = test: NCI-60 growth inhibition: MDA-MB-231/ATCC (Breast Cancer); assay type: cell-based, human
HCT-15 = test: NCI-60 growth inhibition: HCT-15 (Colon Cancer); assay type: cell-based, human
HL-60(TB) = test: NCI-60 growth inhibition: HL-60(TB) (Leukemia); assay type: cell-based, human; conditions: HL-60(TB) (Leukemia), read-out: GI50
RPMI-8226 = test: NCI-60 growth inhibition: RPMI-8226 (Leukemia); assay type: cell-based, human
UACC-257 = test: NCI-60 growth inhibition: UACC-257 (Melanoma); assay type: cell-based, human

C=C1C(=O)O[C@H]2[C@H]1CC/C(COC(=O)NCc1ccc(Cn3c(=O)sn(CCCl)c3=O)cc1)=C\CC[C@@]1(C)O[C@@H]21 [BSK-140]
GI50 (SR): 1480 nM
GI50 (HT29): 2160 nM
GI50 (MDA-MB-468): 1780 nM
GI50 (U251): 6.79 µM
GI50 (UACC-62): 1860 nM
GI50 (MDA-MB-435): 1740 nM
GI50 (CCRF-CEM): 1730 nM
GI50 (SF-539): 1820 nM
GI50 (T-47D): 1970 nM
GI50 (HOP-92): 1500 nM
GI50 (SN12C): 2010 nM
GI50 (SNB-19): 11.9 µM
GI50 (A498): 11.5 µM
GI50 (NCI-H522; NCI-H522 (Non-Small-Cell Lung Cancer)): 1380 nM
GI50 (LOX IMVI): 1690 nM
GI50 (HCT-116; HCT-116 (Colon Cancer)): 1620 nM
GI50 (BT-549): 1450 nM
GI50 (UO-31): 1650 nM
GI50 (M14): 1820 nM
GI50 (RXF 393): 1180 nM
GI50 (IGROV1): 2500 nM
GI50 (COLO 205): 1840 nM
GI50 (MALME-3M): 1720 nM
GI50 (MCF7): 1910 nM
LD50, 7AAD (μM) 24 h [1]: 4.42 µM
LD50, Alamar blue (μM) 24 h [1]: 1.50 µM
LD50, YOPRO (μM) 24 h [1]: 2.88 µM
GI50 (SK-MEL-2): 10.6 µM
GI50 (SW-620): 1170 nM
GI50 (786-0): 1790 nM
GI50 (OVCAR-5): 1970 nM
GI50 (OVCAR-3): 1530 nM
GI50 (OVCAR-8): 2040 nM
GI50 (NCI-H460): 5.1 µM
GI50 (CAKI-1): 1760 nM
GI50 (NCI-H23): 2180 nM
GI50 (EKVX): 1990 nM
GI50 (PC-3): 8.09 µM
GI50 (SF-268): 3.73 µM
GI50 (HS 578T): 12.1 µM
GI50 (DU-145): 1720 nM
GI50 (K-562): 2070 nM
GI50 (SNB-75): 7.65 µM
GI50 (SK-MEL-5): 1.7 µM
GI50 (OVCAR-4): 1920 nM
GI50 (ACHN): 1540 nM
GI50 (TK-10): 1770 nM
GI50 (MOLT-4): 1850 nM
GI50 (SK-MEL-28): 1740 nM
GI50 (MDA-MB-231/ATCC): 1890 nM
GI50 (HCT-15): 1850 nM
GI50 (HL-60(TB)): 1910 nM
GI50 (RPMI-8226): 2370 nM
GI50 (UACC-257): 1850 nM

C=C1C(=O)O[C@H]2[C@H]1CC/C(COC(=O)NCc1ccc(Cn3c(=O)sn(-c4ccc(OC)cc4)c3=O)cc1)=C\CC[C@@]1(C)O[C@@H]21 [BSK-271]
GI50 (SR; Homo sapiens): 530 nM
GI50 (HT29; Homo sapiens, HT-29): 1960 nM
GI50 (MDA-MB-468; Homo sapiens): 1530 nM
GI50 (U251; Homo sapiens, U-251): 4.11 µM
GI50 (UACC-62; Homo sapiens): 1860 nM
GI50 (MDA-MB-435; Homo sapiens): 1830 nM
GI50 (CCRF-CEM; Homo sapiens): 560 nM
GI50 (SF-539; Homo sapiens): 1960 nM
GI50 (T-47D; Homo sapiens, T47D): 1860 nM
GI50 (HOP-92; Homo sapiens): 1610 nM
GI50 (SN12C; Homo sapiens): 2140 nM
GI50 (SNB-19; Homo sapiens): 11.7 µM
GI50 (A498; Homo sapiens): 5.65 µM
GI50 (NCI-H522; Homo sapiens, NCI-H522): 1670 nM
GI50 (LOX IMVI; Homo sapiens): 1730 nM
GI50 (HCT-116; Homo sapiens, HCT-116): 1930 nM
GI50 (BT-549; Homo sapiens): 4370 nM
GI50 (UO-31; Homo sapiens): 1560 nM
GI50 (M14; Homo sapiens): 2190 nM
GI50 (IGROV1; Homo sapiens, IGROV-1): 2850 nM
GI50 (COLO 205; Homo sapiens): 1850 nM
GI50 (MALME-3M; Homo sapiens): 1810 nM
GI50 (MCF7; Homo sapiens): 1770 nM
LD50, 7AAD (μM) 24 h [1]: 1.74 µM
LD50, Alamar blue (μM) 24 h [1]: 1.20 µM
LD50, YOPRO (μM) 24 h [1]: 2.07 µM
LD50 ([1]; values in text): 680 nM
GI50 (SK-MEL-2; Homo sapiens): 3.19 µM
GI50 (SW-620; Homo sapiens): 1770 nM
GI50 (786-0; Homo sapiens): 2050 nM
GI50 (OVCAR-5; Homo sapiens): 2060 nM
GI50 (OVCAR-3; Homo sapiens): 1610 nM
GI50 (OVCAR-8; Homo sapiens): 2370 nM
GI50 (NCI-H460; Homo sapiens): 3.7 µM
GI50 (CAKI-1; Homo sapiens): 2340 nM
GI50 (NCI-H23; Homo sapiens): 2970 nM
GI50 (EKVX; Homo sapiens): 3500 nM
GI50 (PC-3; Homo sapiens): 2.19 µM
GI50 (SF-268; Homo sapiens): 3.14 µM
GI50 (HS 578T; Homo sapiens): 2.92 µM
GI50 (DU-145; Homo sapiens): 1810 nM
GI50 (SNB-75; Homo sapiens): 3.44 µM
GI50 (SK-MEL-5; Homo sapiens): 12 µM
GI50 (OVCAR-4; Homo sapiens): 1640 nM
GI50 (ACHN; Homo sapiens): 1730 nM
GI50 (TK-10; Homo sapiens): 1910 nM
GI50 (MOLT-4; Homo sapiens): 1930 nM
GI50 (SK-MEL-28; Homo sapiens): 1970 nM
GI50 (MDA-MB-231/ATCC; Homo sapiens): 1970 nM
GI50 (HCT-15; Homo sapiens): 1680 nM
GI50 (HL-60(TB); Homo sapiens): 2120 nM
GI50 (RPMI-8226; Homo sapiens): 2010 nM
GI50 (UACC-257; Homo sapiens): 2030 nM
